Measured values as given in PubChem BioAssay (NCI).
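1) Cells in 96-well plates. 2) Compound, 48 h, 5 concentrations. 3) Linear interpolation between surrounding doses. 4) Unreached endpoint = highest concentration. GI50 marks 50% less growth. TGI is the concentration that stops growth completely.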

Tests used:
Assay in all cases: NCI-60 cell line screen, 48 h; in the data active means GI50 below about 0.43 µM; inactive means the rest
BT-549 breast = tested on: BT-549 breast
NCI-H23 lung = tested on: NCI-H23 lung
HOP-92 NSCLC = tested on: HOP-92 NSCLC
RXF 393 renal = tested on: RXF 393 renal
OVCAR-3 ovarian = tested on: OVCAR-3 ovarian
MDA-MB-231 breast = tested on: MDA-MB-231 breast
A498 renal = tested on: A498 renal
NCI-H226 lung = tested on: NCI-H226 lung
NCI/ADR-RES ovarian = tested on: NCI/ADR-RES ovarian
HT29 colon = tested on: HT29 colon
MALME-3M melanoma = tested on: MALME-3M melanoma
PC-3 prostate = tested on: PC-3 prostate
OVCAR-4 ovarian = tested on: OVCAR-4 ovarian
NCI-H460 lung = tested on: NCI-H460 lung
MOLT-4 leukemia = tested on: MOLT-4 leukemia
MDA-MB-435 = tested on: MDA-MB-435
IGROV1 ovarian = tested on: IGROV1 ovarian
UACC-62 melanoma = tested on: UACC-62 melanoma
SK-MEL-28 melanoma = tested on: SK-MEL-28 melanoma
M14 melanoma = tested on: M14 melanoma
KM12 colon = tested on: KM12 colon
LOX IMVI melanoma = tested on: LOX IMVI melanoma
DU-145 prostate = tested on: DU-145 prostate
HOP-62 NSCLC = tested on: HOP-62 NSCLC
T-47D breast = tested on: T-47D breast
SK-OV-3 ovarian = tested on: SK-OV-3 ovarian
SF-295 CNS = tested on: SF-295 CNS
CCRF-CEM leukemia = tested on: CCRF-CEM leukemia
HCT-15 colon = tested on: HCT-15 colon
UACC-257 melanoma = tested on: UACC-257 melanoma
RPMI-8226 leukemia = tested on: RPMI-8226 leukemia
ACHN renal = tested on: ACHN renal
HCT-116 colon = tested on: HCT-116 colon
CAKI-1 renal = tested on: CAKI-1 renal
K-562 leukemia = tested on: K-562 leukemia
SK-MEL-5 melanoma = tested on: SK-MEL-5 melanoma
SNB-75 CNS = tested on: SNB-75 CNS
SR leukemia = tested on: SR leukemia
TK-10 renal = tested on: TK-10 renal
HCC-2998 colon = tested on: HCC-2998 colon
NCI-H522 lung = tested on: NCI-H522 lung
MCF7 breast = tested on: MCF7 breast
OVCAR-8 ovarian = tested on: OVCAR-8 ovarian
SW-620 colon = tested on: SW-620 colon
EKVX NSCLC = tested on: EKVX NSCLC
786-0 renal = tested on: 786-0 renal
HL-60(TB) leukemia = tested on: HL-60(TB) leukemia
U251 CNS = tested on: U251 CNS
SF-268 CNS = tested on: SF-268 CNS
A549 NSCLC = tested on: A549 NSCLC
OVCAR-5 ovarian = tested on: OVCAR-5 ovarian
COLO 205 colon = tested on: COLO 205 colon
HS 578T breast = tested on: HS 578T breast
UO-31 renal = tested on: UO-31 renal
SN12C renal = tested on: SN12C renal
SNB-19 CNS = tested on: SNB-19 CNS

COc1ccc([C@@H]2[C@@H](O)C(=O)N2c2cc(OC)c(OC)c(OC)c2)cc1F
> 100000 nM: TGI (NCI-H23 lung) | TGI (HOP-92 NSCLC) | TGI (MDA-MB-231 breast) | TGI (A498 renal) | TGI (NCI/ADR-RES ovarian) | TGI (MALME-3M melanoma) | TGI (PC-3 prostate) | TGI (OVCAR-4 ovarian) | TGI (NCI-H460 lung) | TGI (MOLT-4 leukemia) | TGI (IGROV1 ovarian) | TGI (UACC-62 melanoma) | TGI (SK-MEL-28 melanoma) | TGI (M14 melanoma) | TGI (KM12 colon) | TGI (LOX IMVI melanoma) | TGI (DU-145 prostate) | TGI (HOP-62 NSCLC) | TGI (T-47D breast) | TGI (SF-295 CNS) | TGI (CCRF-CEM leukemia) | TGI (HCT-15 colon) | TGI (UACC-257 melanoma) | TGI (ACHN renal) | TGI (HCT-116 colon) | TGI (K-562 leukemia) | TGI (SNB-75 CNS) | TGI (SR leukemia) | TGI (TK-10 renal) | TGI (HCC-2998 colon) | TGI (MCF7 breast) | TGI (OVCAR-8 ovarian) | TGI (SW-620 colon) | TGI (EKVX NSCLC) | TGI (786-0 renal) | TGI (U251 CNS) | TGI (SF-268 CNS) | TGI (A549 NSCLC) | TGI (OVCAR-5 ovarian) | TGI (HS 578T breast) | TGI (UO-31 renal) | TGI (SN12C renal) | TGI (SNB-19 CNS)
> 84600 nM: TGI (SK-OV-3 ovarian)
175 nM: TGI (SK-MEL-5 melanoma)
active: GI50 (BT-549 breast) 29.4 nM | GI50 (NCI-H23 lung) 52.5 nM | GI50 (RXF 393 renal) 30.5 nM | GI50 (OVCAR-3 ovarian) 29.9 nM | GI50 (MDA-MB-231 breast) 49.1 nM | GI50 (NCI-H226 lung) 34.5 nM | GI50 (NCI/ADR-RES ovarian) 56.2 nM | GI50 (HT29 colon) 30.5 nM | GI50 (MALME-3M melanoma) 79.1 nM | GI50 (PC-3 prostate) 54.6 nM | GI50 (NCI-H460 lung) 34.4 nM | GI50 (MOLT-4 leukemia) 45.8 nM | GI50 (MDA-MB-435) 23.1 nM | GI50 (IGROV1 ovarian) 51.5 nM | GI50 (UACC-62 melanoma) 48.7 nM | GI50 (M14 melanoma) 35 nM | GI50 (KM12 colon) 36.8 nM | GI50 (LOX IMVI melanoma) 38.1 nM | GI50 (DU-145 prostate) 39.5 nM | GI50 (HOP-62 NSCLC) 58.2 nM | GI50 (SK-OV-3 ovarian) 55.9 nM | GI50 (SF-295 CNS) 36.2 nM | GI50 (CCRF-CEM leukemia) 42.6 nM | GI50 (HCT-15 colon) 35.9 nM | GI50 (RPMI-8226 leukemia) 41.5 nM | GI50 (ACHN renal) 56.8 nM | GI50 (HCT-116 colon) 33.9 nM | GI50 (CAKI-1 renal) 46.3 nM | GI50 (K-562 leukemia) 38.1 nM | GI50 (SK-MEL-5 melanoma) 35.1 nM | GI50 (SNB-75 CNS) 45.6 nM | GI50 (SR leukemia) 33.4 nM | GI50 (HCC-2998 colon) 48.5 nM | GI50 (NCI-H522 lung) 19.9 nM | GI50 (MCF7 breast) 35.2 nM | GI50 (OVCAR-8 ovarian) 40.7 nM | GI50 (SW-620 colon) 45.9 nM | GI50 (786-0 renal) 41.9 nM | GI50 (HL-60(TB) leukemia) 32.9 nM | GI50 (U251 CNS) 36 nM | GI50 (SF-268 CNS) 98.4 nM | GI50 (A549 NSCLC) 44.8 nM | GI50 (OVCAR-5 ovarian) 49.6 nM | GI50 (COLO 205 colon) 30.3 nM | GI50 (HS 578T breast) 57.6 nM | GI50 (UO-31 renal) 72.8 nM | GI50 (SN12C renal) 50.4 nM | GI50 (SNB-19 CNS) 79.9 nM
207 nM: TGI (HL-60(TB) leukemia)
432 nM: TGI (NCI-H226 lung)
inactive: GI50 (A498 renal) 22400 nM | GI50 (OVCAR-4 ovarian) 686 nM | GI50 (SK-MEL-28 melanoma) 792 nM | GI50 (T-47D breast) > 55200 nM | GI50 (TK-10 renal) > 100000 nM | GI50 (EKVX NSCLC) > 100000 nM
110 nM: TGI (HT29 colon)
93.3 nM: TGI (COLO 205 colon)
114 nM: TGI (OVCAR-3 ovarian)
53.7 nM: TGI (NCI-H522 lung)
> 61600 nM: TGI (CAKI-1 renal)
57.5 nM: TGI (MDA-MB-435)
203 nM: TGI (BT-549 breast)
> 21800 nM: TGI (RPMI-8226 leukemia)
